Test: gradient 5% acetonitrile 3 min, to 50% in 2 min, to 85% in 15 min, held 3 min, 100 µL/min
Conditions: column: Zorbax Extend-C18 2.1 x 50 mm; eluents: water / acetonitrile, 0.1% formic acid
Summary of the method: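 Retention times of pure standards were taken from adduct peaks that were selected by computer and manually inspected. Over 3 months, mixtures of ~100 molecules were run by HPLC–quadrupole time-of-flight mass spectrometry in positive and negative ionization mode. The Zorbax Extend-C18 column (2.1 × 50 mm, 1.8 μm) ran at 100 μL/min in water and acetonitrile, each containing 0.1% formic acid, with 40 μL dead volume and 900 μL dwell volume.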

Row | RP-LC retention time [s] | SMILES
1 | 840 | Cc1ccc(Nc2nc(C(=O)NCCc3cccs3)nc3ccccc23)cc1
2 | 1060 | CCOC(=O)c1noc2ncnc(Nc3cccc(CC)c3)c12
3 | 1210 | O=C1Oc2ccccc2C(=O)/C1=C1/C=C(c2ccccc2)SS1
4 | 1150 | O=C(c1cc(Cl)ccc1F)N1CCc2nc(-c3ccc(Cl)cc3)ncc2C1
5 | 557 | O=C(C1CCCN(c2cnc3nccnc3c2)C1)N1CCC(N2CCCCC2)CC1 (centres undefined)
6 | 844 | CCn1ccc2c(cc(C(=O)Nc3ccc(Br)cc3)n2C)c1=O
7 | 720 | Cc1nn2c(N3CCN(c4ccccn4)CC3)c3c(nc2c1-c1ccccc1)CCC3
8 | 1030 | Cc1ccc(-c2ncc(NC(=O)c3ccc(Br)o3)cn2)cc1
9 | 588 | O=C(NCCCN1CCCC1)c1ccc2c(c1)NC(=O)C1CCCCN21 (centres undefined)
10 | 1020 | CCOc1ccc(NC(=O)Cn2cccc(-c3nc(-c4ccc(Br)cc4)no3)c2=O)cc1
11 | 776 | CCn1c(C(=O)N2CCN(c3ccccn3)CC2)cc2c(-c3cccs3)nn(-c3ccccc3)c21
12 | 904 | Cc1c(Cl)cccc1NC(=O)C(C)C1CCN(C(=O)Nc2ccc(F)cc2)CC1 (centres undefined)
13 | 779 | O=c1ccc(-c2cccs2)nn1CCNS(=O)(=O)c1ccccc1C(F)(F)F
14 | 1020 | Cc1ccc(-n2nc(C)c3c(C)cc(OCC(=O)Nc4ccc5c(c4)OCO5)nc32)cc1
15 | 864 | Cc1cccc(C)c1NC(=O)Cn1c(=O)n(-c2ccccc2)c(=O)c2c1cc(C)n2C
16 | 562 | CC(=O)Nc1ccc(CCc2nc3ccc(C(=O)NCC4CCCO4)cc3[nH]2)cc1 (centres undefined)
17 | 919 | Cc1nc(-c2cc(S(=O)(=O)N3CCC(C(=O)NCCc4cccs4)CC3)c(C)s2)no1
18 | 856 | O=C(C1=NN(Cc2cccc(Cl)c2)c2ccccc2S1(=O)=O)N1CCOCC1
19 | 870 | O=S(=O)(NCC(O)(c1ccccc1)C(F)(F)F)c1cc(F)ccc1F (centres undefined)
20 | 614 | CCN(CC)CCNC(=O)CN1C(=O)C2CCCCN2c2ccc(C(=O)N3CCCC3)cc21 (centres undefined)
21 | 642 | CC1=C(c2ccc(Cl)cc2)S(=O)(=O)N=C1N1CCC(C(=O)NCCN(C)C)CC1
22 | 881 | COc1ccc(C(O)Cn2ccn3nc(-c4ccc(C)c(C)c4)cc3c2=O)cc1OC (centres undefined)
23 | 737 | Cc1nc(CC(=O)Nc2ccc(F)cc2C)cs1

Row | RP-LC retention time [s] | SMILES
24 | 656 | CC(C)CCNC(=O)c1cn2ccccc2n1
25 | 756 | COC(=O)c1ccccc1NC(=O)Cn1nc2n(c1=O)CCCCC2
26 | 740 | COc1ccc(Cl)cc1NC(=O)C1CC(=O)N(c2cccc(NC(C)=O)c2)C1 (centres undefined)
27 | 814 | Cc1ccc(S(=O)(=O)N2CCC3(CC2)NCCCN=C3NC2CCCC2)cc1Cl
28 | 818 | COc1ccc(OC)c(NC(=O)c2c(C)oc3nc(C)nc(N4CCOCC4)c23)c1
29 | 686 | CC(COc1ccccc1)NC(C)C(O)c1ccc(O)cc1 (centres undefined)
30 | 787 | O=C(Nc1ccc(F)cc1)C1CCCN(S(=O)(=O)c2c[nH]c(C(=O)N3CCCC3)c2)C1 (centres undefined)
31 | 940 | Cc1nc(-c2cn(C)c3ncccc23)sc1C(=O)Nc1ccc(F)cc1F
32 | 685 | COc1ccc(CNC(=O)C2CCCN(c3nnc4ccc(Cl)cn34)C2)cc1OC (centres undefined)
33 | 798 | Cc1sc2ccn(C)c(=O)c2c1C(=O)NCc1ccccc1Cl
34 | 974 | CS(=O)(=O)Nc1ccc(-c2noc(COc3ccc(Cl)cc3)n2)cc1
35 | 631 | CNC(=O)Cc1csc(NC(=O)c2ccc(OCC(=O)C3CC3)cc2)n1
36 | 707 | CCc1cccc(NC(=O)C2CC(=O)N(c3ccc4c(c3)CCN4C(C)=O)C2)c1 (centres undefined)
37 | 840 | O=C(Cn1c(=O)c(S(=O)(=O)c2ccccc2)cc2ccccc21)NC1CCCC1
38 | 650 | CCCn1ncc(N2CCC(C(=O)NCCCOC(C)C)CC2)cc1=O
39 | 825 | CC1CCc2nc3ncn(CC(=O)NCc4cccc(Br)c4)c(=O)c3cc2C1 (centres undefined)
40 | 798 | Cc1ccc(N2CC(c3noc(-c4ccncc4)n3)CC2=O)cc1 (centres undefined)
41 | 851 | CC(C)CCNC(=O)c1nc(Nc2ccc(F)cc2)c2ccccc2n1
42 | 580 | COc1ccc(-c2nc(N3CCN(c4ccccn4)CC3)c3ccccc3n2)cc1
43 | 811 | CCN1CCN(c2ccc(NC(=O)c3ccc(F)c(Cl)c3)cn2)C1=O
44 | 810 | CCOCCCNC(=O)C1CCN(C2=NS(=O)(=O)C(c3ccc(CC)cc3)=C2C)CC1
45 | 659 | O=C(NC1CCCCC1)C1CCCN(C(=O)c2cc(-c3ccccn3)n[nH]2)C1 (centres undefined)
46 | 790 | CSc1ccc(-c2nc3cc(C)ccn3c2Nc2ccccc2C)cc1

Row | RP-LC retention time [s] | SMILES
47 | 615 | Cc1cccc(S(=O)(=O)N2CCC(c3cc(N)on3)CC2)c1
48 | 849 | COCCCNC(=O)C1CCCN(c2nccnc2Sc2ccccc2)C1 (centres undefined)
49 | 769 | COc1ccc(C(=O)Nc2cccn3c(C4CCC4)nnc23)cc1F
50 | 827 | CCn1ccc(C(=O)N2CCCC2c2nc(-c3ccc(F)cc3F)no2)n1 (centres undefined)
51 | 668 | CC1(CNC(=O)Cc2c[nH]c3ccccc23)CCOCC1
52 | 738 | O=C(Nc1cccn2cnnc12)c1cccc(C(F)(F)F)c1
53 | 639 | O=C(NCCn1cnc2cc(C(=O)N3CCCC3)ccc21)Nc1ccc(Br)cc1F
54 | 819 | CCn1c(C(=O)N2CCN(Cc3ccccc3)CC2)cc2c(-c3cccs3)nn(-c3ccccc3)c21
55 | 867 | Nc1nc2ccc(Cl)cc2n2c(-c3ccccc3)nnc12
56 | 739 | COc1ccc(F)cc1S(=O)(=O)N1CC(F)(F)C[C@H]1CN1CCc2ccccc2C1
57 | 629 | Cc1cc(Cl)ccc1S(=O)(=O)N1CCn2c(nnc2C2CCN(C(C)C)C2)C1 (centres undefined)
58 | 629 | O=C(CSCc1ccccc1)Nc1cc(=O)[nH]c(=O)[nH]1
59 | 586 | COCCC1CCN(C(=O)CN(C)C(=O)c2ccnn2C)CC1
60 | 732 | O=C(NCc1ccccn1)c1nnc(-c2ccc(S(=O)(=O)N3CCCCC3)cc2)o1
61 | 996 | O=S(=O)(NC1CCCCCC1)c1ccc(-c2nnc(C3CCC3)o2)o1
62 | 1010 | Fc1ccc(C2Cn3cnc(-c4nc(-c5cccs5)no4)c3CO2)cc1 (centres undefined)
63 | 1020 | Cc1nc(C)c(C(=O)Nc2nc(-c3ccc(OC(C)C)cc3)cs2)s1
64 | 854 | CN1C(=O)C(C)(C(=O)Nc2ccccc2Cl)Oc2cccnc21 (centres undefined)
65 | 746 | O=C1CSc2ccc(S(=O)(=O)N3CCC(C(=O)NC4CCCC4)CC3)cc2N1
66 | 775 | COc1ccc(-c2cn3c(CC(=O)N4CCCc5ccccc54)csc3n2)cc1OC
67 | 568 | O=C(NCCCS(=O)(=O)N1CCN(c2ncccn2)CC1)c1ccncc1
68 | 616 | COC(=O)C(Cc1ccccc1)NC(=O)N1CCCn2nc(-c3ccncc3)cc2C1 (centres undefined)
69 | 1060 | COc1ccc(-c2nnc(-c3cccc(S(=O)(=O)N4CCCCC4)c3)o2)cc1

Row | RP-LC retention time [s] | SMILES
70 | 703 | COc1ccc2[nH]c(C(=O)NC3CC3)cc2c1
71 | 939 | COCCN(CCOC)c1nc(S(=O)(=O)c2ccc(C)cc2)c(Cl)s1
72 | 640 | CCOc1ccccc1NC(=O)CN1C(=O)C(O)(c2cccc(C)c2)c2ccccc21 (centres undefined)
73 | 1070 | CCOc1ccc(-c2nc(C3CC(=O)N(c4ccc(C)cc4)C3)no2)cc1 (centres undefined)
74 | 860 | CC(C)CCNC(=O)Cn1cccc(-c2nc(-c3ccc(F)cc3)no2)c1=O
75 | 1210 | CCc1sc(NC(=O)CCSc2ccccc2)nc1-c1ccccc1
76 | 792 | O=C(c1ccc(-c2ccsc2)nc1)N1CCCCC1
77 | 771 | COc1cc(OC)c(NC(=O)COc2nc(C)nc3ccccc23)cc1Cl
78 | 637 | CC(=O)N[C@@H]1CN(C(=O)Cc2cccc3ccccc23)C[C@H]1CO
79 | 606 | O=C(NC1CCCCC1N1C(=O)CSC1=O)c1ccc[nH]c1=O (centres undefined)
80 | 881 | COc1ccc(OC)c(NC(=O)Cn2c(C(F)(F)F)nc3cc4c(cc32)OCCO4)c1
81 | 745 | CCCS(=O)(=O)N1CCN(C(=O)c2cc(-c3ccc(OC)cc3)n[nH]2)CC1
82 | 766 | COc1ccc(NC(=O)N2CCc3c(c(-c4nnc(-c5ccc(F)cc5)o4)nn3C)C2)cc1OC
83 | 1100 | CCN1C(=O)COc2ccc(-c3csc(NC(=O)c4cccc(Br)c4)n3)cc21
84 | 870 | CCOc1ccccc1NC(=O)C1CCN(S(=O)(=O)c2ccc3[nH]c(=O)sc3c2)CC1
85 | 924 | Cc1cccc(-c2nc(Cc3noc(CNC(=O)c4ccccc4)n3)c(C)o2)c1
86 | 996 | Cc1ccc(/C=C/S(=O)(=O)N2CC(c3nc(-c4cccs4)no3)C2)cc1
87 | 694 | Cc1ccc2c(=O)c(C(=O)N3CCCCC3)cn(CC(=O)NC3CCCC3)c2n1
88 | 962 | Cc1ccc(C)c(NC(=O)C2CCC(=O)N2S(=O)(=O)c2ccc(C)c(C)c2)c1 (centres undefined)
89 | 838 | CCn1c(=O)c(N2CCC(NC(=O)NCc3ccccc3)CC2)nc2ccccc21

Source: the METLIN SMRT retention time set (Domingo-Almenara et al. 2019)
